Measurements published in patent US20180099931A1 (AbbVie S.à.r.l., priority 2016, published 2018).
Read-outs that look alike come from different tables or passages of the source.

Biological target: T1, F508delCFTR (Homo sapiens, UniProt P13569, DEL508-508)
T1 construct: expressed in transfected cells; host or cells: CFBE41o- human lung-derived epithelial cells (CFBE4lo-F508delCFTR-HRP), doxycycline-inducible
Assay: Cell Surface Expression-Horse Radish Peroxidase (CSE-HRP) Assay;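 for Maximum % activity (with co-corrector): co-corrector and positive control are both the same reference corrector at 2 µM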
Type: cell-based
Details: for Maximum % activity (with co-corrector) / Emax: maximum at any tested concentration, normalized to on-plate positive control; for Emax: read-out: Maximum % activity (without co-corrector)
Experimental: Cell Surface Expression-Horse Radish Peroxidase (CSE-HRP) Assay;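 for Maximum % activity (with co-corrector): co-corrector and positive control are both the same reference corrector at 2 µM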
The development was achieved by expressing the F508delCFTR mutation along with a horseradish peroxidase (HRP) in the fourth exofacial loop, and then measuring the HRP activity using luminescence readout from these cells, CFBE4lo-F508delCFTR-HRP, that were incubated overnight with the test corrector compounds, either without or with the co-corrector. […] The test compounds were then added either without or with a co-corrector at the required concentrations and further incubated for 18-24 hours at 33° C. The highest concentration tested was 20 μM with an 8-point concentration response curve using a 3-fold dilution in both the test compound without or with the co-corrector. Three replicate plates were run to determine one EC50. All plates contained negative controls (dimethyl sulfoxide, DMSO) and positive control (2 μM of 3-[(2R,4R)-4-({[1-(2,2-difluoro-1,3-benzodioxol-5-yl)cyclopropyl]carbonyl}amino)-7-methoxy-3,4-dihydro-2H-chromen-2-yl]benzoic acid) as well as on-plate concentration response of the positive control. […] The raw counts from the experiment were analyzed using Accelrys® Assay Explorer v3.3.
1−[3*SDPositive Control+3*SDNegative Control/Absolute(MeanPositive Control−MeanNegative Control)]
wherein “SD” is standard deviation.
The % activity measured at each of the 8 test concentrations of the test compound added either without or with a co-corrector (2 μM of 3-[(2R,4R)-4-({[1-(2,2-difluoro-1,3-benzodioxol-5-yl)cyclopropyl]carbonyl}amino)-7-methoxy-3,4-dihydro-2H-chromen-2-yl]benzoic acid) was normalized to the on-plate positive control using the following formulae:
% activity(Test compound without co-corrector)=[(test compound without co-corrector response−DMSO response)/(positive control response−DMSO response)]*100
% activity(Test compound with co-corrector)=[(test compound with co-corrector response−DMSO response)/(positive control response−DMSO response)]*100
The maximum % activity achieved for the test compound either without or with a co-corrector at any tested concentration is presented in Table 4 along with the respective EC50's calculated using the following general sigmoidal curve with variable Hill slope equation (described as Model 42 in the Accelrys® Assay Explorer v3.3 software):
General sigmoidal curve with concentration, response, top, bottom, EC50 and Hill slope. This model describes a sigmoidal curve with an adjustable baseline, a. The equation can be used to fit curves where response is either increasing or decreasing with respect to the independent variable, “x”.
“x” is a concentration of drug under test. “y” is the response. “a” is the maximum response, and “d” is the minimum response “c” is the inflection point (EC50) for the curve. That is, “y” is halfway between the lower and upper asymptotes when x=c. “b” is the slope-factor or Hill coefficient. The sign of b is positive when the response increases with increasing dose and is negative when the response decreases with increasing dose (inhibition).

[1] = test compound without co-corrector, read-out: EC50 (without co-corrector)
[2] = with co-corrector (2 μM of 3-[(2R,4R)-4-({[1-(2,2-difluoro-1,3-benzodioxol-5-yl)cyclopropyl]carbonyl}amino)-7-methoxy-3,4-dihydro-2H-chromen-2-yl]benzoic acid), read-out: EC50 (with co-corrector)
[3] = test compound without co-corrector
[4] = CSE-HRP, test compound without co-corrector, read-out: EC50 (without co-corrector)
[5] = CSE-HRP, with co-corrector (2 μM of 3-[(2R,4R)-4-({[1-(2,2-difluoro-1,3-benzodioxol-5-yl)cyclopropyl]carbonyl}amino)-7-methoxy-3,4-dihydro-2H-chromen-2-yl]benzoic acid), read-out: EC50 (with co-corrector)
[6] = CSE-HRP, with co-corrector (2 μM)

T1 sequence (P13569 with tags, fused parts or gaps DEL508-508): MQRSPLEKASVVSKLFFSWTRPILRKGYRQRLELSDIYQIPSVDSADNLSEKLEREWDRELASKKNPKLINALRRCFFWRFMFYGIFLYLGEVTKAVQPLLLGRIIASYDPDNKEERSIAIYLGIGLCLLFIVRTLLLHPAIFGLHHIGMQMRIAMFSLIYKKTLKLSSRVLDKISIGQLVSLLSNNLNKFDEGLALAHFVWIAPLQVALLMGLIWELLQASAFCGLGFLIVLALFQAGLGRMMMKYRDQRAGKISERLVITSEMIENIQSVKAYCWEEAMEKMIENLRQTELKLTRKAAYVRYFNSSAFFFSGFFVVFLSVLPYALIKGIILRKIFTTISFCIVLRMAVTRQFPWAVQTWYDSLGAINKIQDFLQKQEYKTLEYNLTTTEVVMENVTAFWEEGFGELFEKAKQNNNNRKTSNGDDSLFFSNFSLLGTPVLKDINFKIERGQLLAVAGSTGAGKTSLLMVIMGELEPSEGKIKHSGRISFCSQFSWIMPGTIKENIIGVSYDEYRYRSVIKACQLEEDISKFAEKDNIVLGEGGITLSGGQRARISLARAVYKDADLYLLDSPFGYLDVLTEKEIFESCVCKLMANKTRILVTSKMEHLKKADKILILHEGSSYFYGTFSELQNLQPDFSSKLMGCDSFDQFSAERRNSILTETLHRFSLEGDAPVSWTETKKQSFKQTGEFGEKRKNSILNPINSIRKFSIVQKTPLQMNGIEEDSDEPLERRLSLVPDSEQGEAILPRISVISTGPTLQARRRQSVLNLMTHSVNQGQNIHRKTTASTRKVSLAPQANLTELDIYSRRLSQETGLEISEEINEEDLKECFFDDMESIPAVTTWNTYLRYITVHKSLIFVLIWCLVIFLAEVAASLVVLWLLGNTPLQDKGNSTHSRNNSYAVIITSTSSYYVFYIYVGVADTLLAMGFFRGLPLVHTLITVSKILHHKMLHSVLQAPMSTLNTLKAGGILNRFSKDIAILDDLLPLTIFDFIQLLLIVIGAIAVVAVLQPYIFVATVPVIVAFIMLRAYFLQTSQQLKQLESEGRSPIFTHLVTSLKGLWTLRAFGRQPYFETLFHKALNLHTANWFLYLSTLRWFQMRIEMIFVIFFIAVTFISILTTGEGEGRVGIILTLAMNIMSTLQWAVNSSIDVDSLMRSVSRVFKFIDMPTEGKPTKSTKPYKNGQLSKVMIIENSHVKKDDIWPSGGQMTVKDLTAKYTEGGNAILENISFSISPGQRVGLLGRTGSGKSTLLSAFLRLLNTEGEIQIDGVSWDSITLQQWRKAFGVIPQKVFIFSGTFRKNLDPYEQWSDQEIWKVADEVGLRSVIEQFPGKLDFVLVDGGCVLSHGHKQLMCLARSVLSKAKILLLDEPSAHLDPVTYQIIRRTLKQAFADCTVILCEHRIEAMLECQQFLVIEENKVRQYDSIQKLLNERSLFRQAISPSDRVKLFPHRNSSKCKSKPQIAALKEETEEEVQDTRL

| SMILES | EC50 [1] [µM] | EC50 [2] [µM] | Maximum % activity (with co-corrector) (with co-corrector (2 μM)) | Emax (without co-corrector) [%] | Emax [3] [%] | Maximum % activity (with co-corrector) (with co-corrector (2 μM of 3-[(2R,4R)-4-({[1-(2,2-difluoro-1,3-benzodioxol-5-yl)cyclopropyl]carbonyl}amino)-7-methoxy-3,4-dihydro-2H-chromen-2-yl]benzoic acid)) | EC50 [4] [µM] | EC50 [5] [µM] | Maximum % activity (with co-corrector) [6] | Emax (CSE-HRP, without co-corrector) [%] |
| --- | --- | --- | --- | --- | --- | --- | --- | --- | --- | --- |
| COc1ccc(C(F)(F)F)cc1CN[C@@H]1[C@@H](C(C)(C)C)[C@H](C(=O)O)N(C(=O)C2CCCCC2)[C@@H]1c1ccccc1N(C)C (racemic) [Example I-22] | 1 to 10 | < 1 | +++ (≥350) | > 200 | – | – | – | – | – | – |
| COc1cccc([C@@H]2[C@H](NCc3cc(C(F)(F)F)ccc3OC)[C@@H](C(C)(C)C)[C@H](C(=O)O)N2C(=O)C2CCCCO2)n1 (mixture of isomers) [Example I-23] | 1 to 10 | 1 to 10 | +++ (≥350) | < 100 | – | – | – | – | – | – |
| COc1cc(C(F)(F)F)ccc1CN[C@@H]1[C@@H](C(C)(C)C)[C@H](C(=O)O)N(C(=O)C2C3COCC32)[C@@H]1c1ccccc1N(C)C (mixture of isomers) [Example I-24] | 1 to 10 | 1 to 10 | +++ (≥350) | > 200 | – | – | – | – | – | – |
| COc1cc(C(F)(F)F)ccc1CN[C@@H]1[C@@H](C(C)(C)C)[C@H](C(=O)O)N(C(=O)C2CCCCO2)[C@@H]1c1ccccc1N(C)C (mixture of isomers) [Example I-25] | 1 to 10 | < 1 | +++ (≥350) | > 200 | – | – | – | – | – | – |
| COC(=O)N1CCC[C@@H](C(=O)N2[C@H](c3ccccc3)[C@H](Nc3cc(C(F)(F)F)cc(C)n3)[C@@H](C(C)(C)C)[C@@H]2C(=O)O)C1 (racemic) [Example I-27] | 1 to 10 | 1 to 10 | +++ (≥350) | > 200 | – | – | – | – | – | – |
| COc1cc(C(F)(F)F)ccc1CN[C@@H]1[C@@H](C(C)(C)C)[C@H](C(=O)O)N(C(=O)OC(C)C)[C@@H]1c1cccnc1N(C)C (racemic) [Example I-28] | 1 to 10 | 1 to 10 | +++ (≥350) | > 200 | – | – | – | – | – | – |
| COc1ccc(C(F)(F)F)cc1CN[C@@H]1[C@@H](C(C)(C)C)[C@H](C(=O)O)N(C(=O)OC(C)C)[C@@H]1c1cccnc1N(C)C (racemic) [Example I-29] | 1 to 10 | 1 to 10 | +++ (≥350) | > 200 | – | – | – | – | – | – |
| COc1ccc(S(C)(=O)=O)cc1CN[C@@H]1[C@@H](C(C)(C)C)[C@H](C(=O)O)N(C(=O)C2CCCCC2)[C@@H]1c1ccccc1 (racemic) [Example I-30] | > 10 | > 10 | + (<150) | < 100 | – | – | – | – | – | – |
| CO[C@@H]1CCC[C@@H](C(=O)N2[C@H](c3ccccc3)[C@H](Nc3cc(C(F)(F)F)cc(C)n3)[C@@H](C(C)(C)C)[C@@H]2C(=O)O)C1 (racemic) [Example I-31] | 1 to 10 | 1 to 10 | +++ (≥350) | < 100 | – | – | – | – | – | – |
| CC(C)c1ccccc1CN[C@@H]1[C@@H](C(C)(C)C)[C@H](C(=O)O)N(C(=O)C2CCCCC2)[C@@H]1c1ccccc1 (racemic) [Example I-35] | < 1 | < 1 | +++ (≥350) | < 100 | – | – | – | – | – | – |
| COc1ncc(Cl)cc1CN[C@@H]1[C@@H](C(C)(C)C)[C@H](C(=O)O)N(C(=O)C2CCCCC2)[C@@H]1c1ccccc1 (racemic) [Example I-36] | 1 to 10 | 1 to 10 | +++ (≥350) | 100 to 200 | – | – | – | – | – | – |
| Cc1cc(C(F)(F)F)cc(N[C@@H]2[C@@H](C(C)(C)C)[C@H](C(=O)O)N(C(=O)C3CCC4(CC3)CC4)[C@@H]2c2ccccc2)n1 (racemic) [Example I-37] | > 10 | 1 to 10 | ++ (≥150 and <350) | < 100 | – | – | – | – | – | – |
| COc1cc(C(F)(F)F)cc(N[C@@H]2[C@@H](C(C)(C)OC)[C@H](C(=O)O)N(C(=O)C3CCCCC3)[C@@H]2c2ccccc2)n1 (racemic) [Example I-38] | 1 to 10 | 1 to 10 | ++ (≥150 and <350) | < 100 | – | – | – | – | – | – |
| COc1ccc(Cl)cc1CN[C@H]1[C@H](C(C)(C)C)[C@@H](C(=O)O)N(C(=O)C2CCCCC2)[C@H]1c1ncccc1OC (racemic) [Example I-40] | > 10 | > 10 | + (<150) | < 100 | – | – | – | – | – | – |
| COc1ccc(C(F)(F)F)cc1CN[C@@H]1[C@@H](C(C)(C)C)[C@H](C(=O)O)N(C(=O)C(C)(C)OC)[C@@H]1c1ccccc1 (racemic) [Example I-41] | > 10 | 1 to 10 | ++ (≥150 and <350) | < 100 | – | – | – | – | – | – |
| COc1ccc(C(C)(C)C)cc1CN[C@H]1[C@H](C(C)(C)C)[C@@](C)(C(=O)O)N(C(=O)C2CCCCC2)[C@H]1c1ccccc1 (racemic) [Example I-211] | > 10 | 1 to 10 | + (<150) | < 100 | – | – | – | – | – | – |
| COCCS(=O)(=O)NC(=O)[C@H]1[C@H](C(C)(C)C)[C@@H](Nc2cc(C(F)(F)F)cc(C)n2)[C@@H](c2ccccc2)N1C(=O)C1CCCCC1 (racemic) [Example III-49, rac-(2R,3R,4R,5R)-3-(tert-butyl)-1-(cyclohexanecarbonyl)-N-((2-methoxyethyl)sulfonyl)-4-((6-methyl-4-(trifluoromethyl)pyridin-2-yl)amino)-5-phenylpyrrolidine-2-carboxamide] | > 10 | 1 to 10 | – | – | < 100 | ++ (≥150 and <350) | – | – | – | – |
| COc1ccc(C(C)(C)C)cc1CN[C@H]1[C@H](C(C)(C)C)[C@@H](C(=O)O)N(C(=O)C2CCCCC2)[C@H]1c1cccn(C)c1=O (racemic) [Example III-228, rac-(2S,3S,4S,5S)-3-tert-butyl-4-{[(5-tert-butyl-2-methoxyphenyl)methyl]amino}-1-(cyclohexanecarbonyl)-5-(1-methyl-2-oxo-1,2-dihydropyridin-3-yl)pyrrolidine-2-carboxylic acid] | > 10 | > 10 | + (<150) | – | < 100 | – | – | – | – | – |
| COc1ccc(CN[C@@H]2[C@@H](C(C)(C)C)[C@H](C(=O)O)N(C(=O)C3CCCCC3)[C@@H]2c2ccccc2)c(OC)c1Cl (racemic) [II-3] | – | – | – | – | – | – | 1 to 10 | 1 to 10 | ++ (≥150 and <350) | < 100 |
| CC(C)Oc1ccccc1CN[C@@H]1[C@@H](C(C)(C)C)[C@H](C(=O)O)N(C(=O)C2CCCCC2)[C@@H]1c1ccccc1 (racemic) [II-4] | – | – | – | – | – | – | 1 to 10 | 1 to 10 | +++ (≥350) | 100 to 200 |
| CC(C)COc1ccccc1CN[C@@H]1[C@@H](C(C)(C)C)[C@H](C(=O)O)N(C(=O)C2CCCCC2)[C@@H]1c1ccccc1 (racemic) [II-5] | – | – | – | – | – | – | 1 to 10 | 1 to 10 | +++ (≥350) | < 100 |
| COc1ncccc1CN[C@@H]1[C@@H](C(C)(C)C)[C@H](C(=O)O)N(C(=O)C2CCCCC2)[C@@H]1c1ccccc1 (racemic) [II-6] | – | – | – | – | – | – | 1 to 10 | 1 to 10 | +++ (≥350) | 100 to 200 |
